# Results as given in ChEMBL document CHEMBL1130554, “BMS-200475, a novel carbocyclic 2-deoxyguanosine analog with potent and selective anti-hepatitis B virus activity in vitro” (Bioorg Med Chem Lett, 1997).
# Assays:
# HepG2 [1] = assay: Tested for the effective concentration required to inhibit HBV in HepG2.2.15 human liver cells; type: functional, cell-based
# [2] = Tested for cytotoxic concentration against influenza virus in MDBK cells; type: functional; conditions: Bos taurus
# CEM-SS [3] = assay: Tested for effective concentration to inhibit human immunodeficiency virus (HIV) in CEM-SS cells; type: functional, cell-based
# [4] = Tested for effective concentration required to inhibit of influenza virus in MDBK cells; type: functional, cell-based, Bos taurus
# WI-38 [5] = assay: Tested for cytotoxic concentration against herpes simplex virus type 1 (HSV-1) in WI-38 cells; type: functional; conditions: Homo sapiens
# CEM-SS [6] = assay: Tested for cytotoxic concentration against human immunodeficiency virus (HIV) in CEM-SS cells; type: functional
# WI-38 [7] = assay: Tested for effective concentration required to inhibit herpes simplex virus type 1 (HSV-1) in WI-38 cells; type: functional, cell-based; conditions: Homo sapiens
# WI-38 [8] = assay: Tested for cytotoxic concentration against varicella zoster virus (VZV) in WI-38 cells; type: functional; conditions: Homo sapiens
# Hepatitis B virus [9] = assay: Tested effective dose against hepatitis B virus in vitro; type: functional; conditions: read-out: ED50 (the source's name)
# HFF = assay: Tested for effective concentration required to inhibit human cytomegalovirus (HCMV) in HFF cells; type: functional, cell-based
# Hepatitis B virus [10] = assay: Tested for cytotoxic concentration against hepatitis B virus; type: functional
# WI-38 [11] = assay: Tested for effective concentration required to inhibit varicella zoster virus (VZV) in WI-38 cells; 30-60; type: functional, cell-based; conditions: Homo sapiens
# HepG2 [12] = assay: Tested for the cytotoxicity against hepatitis B virus (HBV) in HepG2.2.15 cells; type: functional; conditions: Homo sapiens
structure (smiles),measurement,setting,value
C=C1[C@H](CO)[C@@H](O)C[C@@H]1n1cc(C)c(=O)[nH]c1=O,EC50,HepG2 [1],> 100 µM
C=C1[C@H](CO)[C@@H](O)C[C@@H]1n1cc(I)c(=O)[nH]c1=O,EC50,HepG2 [1],10.5 µM
C=C1[C@H](CO)[C@@H](O)C[C@@H]1n1cnc2c(N)ncnc21,EC50,HepG2 [1],0.128 µM
Nc1nc(O)c2ncn([C@@H]3C[C@H](CO)[C@@H](O)C3)c2n1,EC50,HepG2 [1],0.05 µM
C=C1[C@@H](CO)[C@H](O)C[C@H]1n1cnc2c(O)nc(N)nc21,EC50,HepG2 [1],100 µM
C=C1[C@H](CO)[C@@H](O)C[C@@H]1n1cnc2c(=O)[nH]c(N)nc21 [ENTECAVIR],EC50,HepG2 [1],0.003 µM
same,CC50,[2],78 µM
same,EC50,CEM-SS [3],> 10 µM
same,EC50,[4],> 80 µM
same,CC50,WI-38 [5],> 90 µM
same,CC50,CEM-SS [6],21 µM
same,EC50,WI-38 [7],≥ 32 µM
same,CC50,WI-38 [8],120 µM
same,EC50,Hepatitis B virus [9],0.003 µM
same,EC50,HFF,15 µM
same,CC50,Hepatitis B virus [10],21 µM
same,EC50,WI-38 [11],30 µM
same,CC50,HepG2 [12],30 µM
Nc1ccn([C@@H]2CS[C@H](CO)O2)c(=O)n1 [LAMIVUDINE],EC50,HepG2 [1],0.2 µM
Nc1nc(O)c2ncn(CCC(CO)CO)c2n1 [PENCICLOVIR],EC50,HepG2 [1],≥ 100 µM
